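Five concentrations, 48 hours, 96-well plates. Abbreviation: GI50, concentration required for 50% inhibition of growth. TGI: total growth inhibition.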
Assays:
Test in all cases: NCI-60 cell line screen, 48 h
LXFL 529 NSCLC = system: LXFL 529 NSCLC
DLD-1 colon = system: DLD-1 colon
DMS 273 small cell lung = system: DMS 273 small cell lung
HOP-18 NSCLC = system: HOP-18 NSCLC
SNB-78 CNS = system: SNB-78 CNS
M19-MEL melanoma = system: M19-MEL melanoma
PC-3 prostate = system: PC-3 prostate
MCF7 breast = system: MCF7 breast
NCI/ADR-RES ovarian = system: NCI/ADR-RES ovarian
MDA-MB-435 = system: MDA-MB-435

Row | Compound | TGI (LXFL 529 NSCLC) | TGI (DLD-1 colon) | TGI (DMS 273 small cell lung) | TGI (HOP-18 NSCLC) | TGI (SNB-78 CNS) | TGI (M19-MEL melanoma) | GI50 (PC-3 prostate) | TGI (PC-3 prostate) | GI50 (MCF7 breast) | TGI (MCF7 breast) | GI50 (NCI/ADR-RES ovarian) | TGI (NCI/ADR-RES ovarian) | GI50 (MDA-MB-435) | TGI (MDA-MB-435)
1 | C=CCc1cc(OC)c2c(c1)C(O)CC(c1ccc(OC)c(OC)c1)O2 (stereo not given) | > 100 µM | > 100 µM | > 100 µM | > 100 µM | > 100 µM | > 100 µM | – | – | – | – | – | – | – | –
2 | COc1ccc(-c2cc(-c3ccc(Nc4nc(Nc5ccccc5)nc(Nc5ccc(Cl)cc5)n4)cc3)nc(N)c2C#N)cc1 | – | – | – | – | – | – | 1.13 µM | 7.94 µM | 0.941 µM | > 50 µM | 3.66 µM | > 43.1 µM | 0.962 µM | 2.16 µM
3 | O=c1n(CC2CO2)c(=O)n(CC2CO2)n1CC1CO1 (stereo not given) | – | – | – | – | – | – | 29.2 µM | > 100 µM | 3.68 µM | > 100 µM | 19.5 µM | > 100 µM | 34.7 µM | > 100 µM
4 | O=C(O)c1cc(C(=O)O)cc(N2C(=O)c3ccccc3C2=O)c1 | – | – | – | – | – | – | – | > 100 µM | – | > 100 µM | – | > 100 µM | – | > 100 µM
5 | O=C1/C(=C/c2ccc([N+](=O)[O-])cc2)COc2ccc(O)c(O)c21 | – | – | – | – | – | – | 1.59 µM | 4.53 µM | – | – | 2.66 µM | 9.33 µM | 1.58 µM | 3.08 µM
6 | COc1cc2c(c(OC)c1O)C(=O)C(OC)C(c1ccc(O)c(O)c1)O2 (stereo not given) | – | – | – | – | – | – | 0.599 µM | > 50.6 µM | 0.391 µM | > 100 µM | 0.203 µM | > 100 µM | 0.126 µM | –
7 | CC1=C(C#N)C23C(=O)c4ccccc4C(O)=C2C(=O)C=CC3(O)N1Cc1ccccc1 (stereo not given) | – | – | – | – | – | – | 47 µM | > 100 µM | 41.6 µM | > 100 µM | 2.84 µM | 30.6 µM | 38.6 µM | > 100 µM
8 | CCCCCCCCSC1=CC(=O)c2nc3ccccc3c3ccnc1c23 | – | – | – | – | – | – | 77.9 µM | > 100 µM | 20.2 µM | 57.4 µM | 97.4 µM | > 100 µM | 41.7 µM | > 100 µM
9 | O=C1NC2(CCCCC2)C2CCCCC(O)C12 (stereo not given) | > 100 µM | > 100 µM | > 100 µM | – | > 100 µM | > 100 µM | – | – | – | – | – | – | – | –
10 | Cn1ccnc1C(=O)/C=C/c1ccc(CC(=O)Nc2ccc(Br)cc2)cc1 | – | – | – | – | – | – | 2.87 µM | 8.25 µM | 1.84 µM | > 16.7 µM | 5.08 µM | > 16.7 µM | 4.37 µM | 14.8 µM
11 | COc1ccc2c(c1)C1(C=N2)CCN(C(C)=O)CC1 | > 100 µM | > 100 µM | > 100 µM | > 100 µM | > 100 µM | > 100 µM | – | – | – | – | – | – | – | –
12 | O=C(NCCNc1nccc(-c2c(-c3cccc(O)c3)nc3sccn23)n1)c1ccccc1O | – | – | – | – | – | – | 4.36 µM | 55.1 µM | 3.27 µM | 19.9 µM | 6.64 µM | 70.1 µM | 0.491 µM | 12.1 µM
13 | O=C(Nc1ccc(I)cc1)c1cc([N+](=O)[O-])ccc1O | – | – | – | – | – | – | 3.42 µM | 23.4 µM | 3.93 µM | > 100 µM | 5.85 µM | > 100 µM | 6.91 µM | > 100 µM

Source: PubChem BioAssay (NCI)
